Source: patent EP3530280B1, “VETERINARY COMPOSITION FOR MANUFACTURING A SEMINAL ADDITIVE USEFUL FOR ARTIFICIAL INSEMINATION IN ANIMALS” (Universidad De León, priority 2016, dated 2020)

Tested on: swine
Experiment: Field studies of semen additive in swine artificial insemination (fecundity, birth fertility, prolificacy)
Type: in vivo
Conditions: Experimental Groups, amount per dose as given in the Composition column
Protocol: In order to examine the effect of the prepared pharmaceutical composition in Example 1 above, for use thereof in swine artificial insemination, field studies were carried out about the effects on fecundity, birth fertility and prolificacy (mean of the total piglets being born (either dead or alive) per delivery). Tables 1 and 2 show the results of the studies being carried out, observing how there are differences being statistically significant in all the experimental groups with respect to control groups.
The statistical characters of fecundity (%fecundity), prolificacy (N.T.), number of alive births (N.V.) and mortality (% of N.M. against N.T.), were tested on factorial ANOVA, LSD Fisher and SAS package (Statistical Analysis System). Table 1. Effects on fecundity and birth fertility

[1] = additive applied to seminal doses for swine artificial insemination

## Oxytocin
Mean ± e.s. (n)
  prolificacy (mean of the total piglets being born (either dead or alive) per delivery): 14.30 ± 0.29 (154)
[1]
  Birth Fertility (%): 88.89%
  Fecundity (%): 90.26%
